# Test results reported in patent US7354936B2, “2-phenylpyran-4-one derivatives” (Almirall AG, priority 2000, dated 2008).
# How the values were obtained:
# COX-2 = molecular target: T1, COX-2 (Homo sapiens, UniProt P35354); assay: COX-2 activity in human whole blood (PGE2, LPS-induced); assay type: cell-based; conditions: for IC50: LPS 24 h at 37° C., PGE2 by ELISA; for Ratio COX-1/COX-2: ratio of COX-1/COX-2 IC50 values
# T1 construct: incubated in the presence of LPS (10:g/ml) for 24 h at 37° C. in order to induce the COX-2 expression; from tissue; host or cells: human whole blood (heparinized) from healthy volunteers, LPS-stimulated for 24 h
# T1 sequence (P35354 18-604): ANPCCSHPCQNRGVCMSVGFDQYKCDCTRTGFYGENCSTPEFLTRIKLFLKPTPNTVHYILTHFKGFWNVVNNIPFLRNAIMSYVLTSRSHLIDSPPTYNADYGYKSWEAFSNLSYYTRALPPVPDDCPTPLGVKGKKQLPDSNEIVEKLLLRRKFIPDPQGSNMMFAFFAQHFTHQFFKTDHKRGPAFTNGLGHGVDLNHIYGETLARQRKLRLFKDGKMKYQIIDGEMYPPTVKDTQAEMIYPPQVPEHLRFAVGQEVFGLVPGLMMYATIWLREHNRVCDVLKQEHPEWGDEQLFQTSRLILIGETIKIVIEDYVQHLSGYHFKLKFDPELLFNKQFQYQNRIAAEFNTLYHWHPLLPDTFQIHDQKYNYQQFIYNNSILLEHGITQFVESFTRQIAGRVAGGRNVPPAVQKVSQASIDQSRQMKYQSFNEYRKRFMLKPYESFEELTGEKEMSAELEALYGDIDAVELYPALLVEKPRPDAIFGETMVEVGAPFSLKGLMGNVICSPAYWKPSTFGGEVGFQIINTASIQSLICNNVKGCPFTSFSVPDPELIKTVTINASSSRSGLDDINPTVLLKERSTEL
# COX-1 = molecular target: T2, COX-1 (Homo sapiens, UniProt P23219); assay: COX-1 activity in human whole blood (TXB2, calcium ionophore A23187); assay type: cell-based; conditions: for IC50: 1 h at 37° C., TXB2 by ELISA; for inhibition at 100 µM: read-out: COX-1 inhibition at 100 μM, at 100 μM
# T2 construct: Fresh blood from healthy volunteers; from tissue; host or cells: human whole blood (heparinized) from healthy volunteers
# T2 sequence (P23219 24-599): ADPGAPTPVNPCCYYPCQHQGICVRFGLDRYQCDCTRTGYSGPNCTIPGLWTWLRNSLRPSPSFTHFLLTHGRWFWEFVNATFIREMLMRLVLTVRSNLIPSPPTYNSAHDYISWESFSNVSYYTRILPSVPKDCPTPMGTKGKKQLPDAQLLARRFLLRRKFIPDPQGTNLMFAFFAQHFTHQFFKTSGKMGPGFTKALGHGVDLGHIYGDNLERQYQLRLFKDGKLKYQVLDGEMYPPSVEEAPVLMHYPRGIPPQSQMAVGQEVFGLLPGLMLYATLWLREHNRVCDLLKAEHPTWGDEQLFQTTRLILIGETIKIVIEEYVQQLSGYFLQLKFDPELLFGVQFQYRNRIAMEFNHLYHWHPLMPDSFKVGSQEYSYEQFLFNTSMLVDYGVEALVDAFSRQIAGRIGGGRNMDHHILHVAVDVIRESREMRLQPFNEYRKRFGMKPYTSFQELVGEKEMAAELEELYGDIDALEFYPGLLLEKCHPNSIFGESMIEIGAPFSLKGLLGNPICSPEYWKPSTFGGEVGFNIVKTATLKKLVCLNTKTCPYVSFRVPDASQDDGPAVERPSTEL
Compound,IC50 (COX-2) [µM],Ratio COX-1/COX-2 (COX-2),melting point [°C],IC50 (COX-1) [µM],inhibition at 100 µM (COX-1) [%]
"Cc1cc(=O)c(Oc2ccc(F)cc2C)c(-c2ccc(S(C)(=O)=O)cc2)o1 [Example 1, 3-(4-Fluoro-2-methylphenoxy)-2-(4-methanesulfonylphenyl)-6-methyl pyran-4-one]",0.18,118,146,–,–
"Cc1cc(=O)c(Oc2ccc(Cl)cc2C)c(-c2ccc(S(C)(=O)=O)cc2)o1 [Example 2, 3-(4-Chloro-2-methylphenoxy)-2-(4-methanesulfonylphenyl)-6-methyl pyran-4-one]",0.13,296,–,38.5,–
"Cc1ccc(Oc2c(-c3ccc(S(C)(=O)=O)cc3)oc(C)cc2=O)c(Cl)c1 [Example 3, 3-(2-Chloro-4-methylphenoxy)-2-(4-methanesulfonylphenyl)-6-methyl pyran-4-one]",0.24,68,–,16.3,–
"Cc1cc(=O)c(Oc2ccc(Br)cc2F)c(-c2ccc(S(C)(=O)=O)cc2)o1 [Example 6, 3-(4-Bromo-2-fluorophenoxy)-2-(4-methanesulfonylphenyl)-6-methyl pyran-4-one]",–,268,–,40.2,–
"Cc1cc(=O)c(Oc2ccc(Br)cc2Cl)c(-c2ccc(S(C)(=O)=O)cc2)o1 [Example 7, 3-(4-Bromo-2-chlorophenoxy)-2-(4-methanesulfonylphenyl)-6-methyl pyran-4-one]",0.21,–,–,–,–
"Cc1cc(=O)c(Oc2ccc(Br)cc2Br)c(-c2ccc(S(C)(=O)=O)cc2)o1 [Example 8, 3-(2,4-Dibromophenoxy)-2-(4-methanesulfonylphenyl)-6-methyl-pyran-4-one]",1.13,51,–,57.5,–
"Cc1cc(=O)c(Oc2ccccc2C)c(-c2ccc(S(C)(=O)=O)cc2)o1 [Example 10, 2-(4-Methanesulfonylphenyl)-6-methyl-3-(2-methylphenoxy)pyran-4-one]",0.086,231,168,19.9,–
"Cc1cccc(Oc2c(-c3ccc(S(C)(=O)=O)cc3)oc(C)cc2=O)c1 [Example 11, 2-(4-Methanesulfonylphenyl)-6-methyl-3-(3-methylphenoxy)pyran-4-one]",0.3,47,162,14.2,–
"Cc1ccc(Oc2c(-c3ccc(S(C)(=O)=O)cc3)oc(C)cc2=O)c(F)c1 [Example 12, 3-(2-Fluoro-4-methylphenoxy)-2-(4-methanesulfonylphenyl)-6-methyl pyran-4-one]",–,–,171,–,–
"CCc1oc(-c2ccc(S(C)(=O)=O)cc2)c(Oc2ccc(F)cc2F)c(=O)c1C [Example 13, 3-(2,4-Difluorophenoxy)-6-ethyl-2-(4-methanesulfonylphenyl)-5-methyl pyran-4-one]",–,–,200,–,–
"Cc1oc(-c2ccc(S(C)(=O)=O)cc2)c(Oc2ccc(F)cc2F)c(=O)c1Cl [Example 14, 3-Chloro-5-(2,4-difluorophenoxy)-6-(4-methanesulfonylphenyl)-2-methyl pyran-4-one]",–,–,210,–,–
"Cc1oc(-c2ccc(S(C)(=O)=O)cc2)c(Oc2ccc(F)cc2)c(=O)c1Cl [Example 15, 3-Chloro-5-(4-fluorophenoxy)-6-(4-methanesulfonylphenyl)-2-methyl pyran-4-one]",–,–,279,–,–
"Cc1oc(-c2ccc(S(C)(=O)=O)cc2)c(Oc2ccc(Cl)cc2)c(=O)c1Cl [Example 16, 3-Chloro-5-(4-chlorophenoxy)-6-(4-methanesulfonylphenyl)-2-methyl pyran-4-one]",0.53,74,274,26,–
"Cc1oc(-c2ccc(S(C)(=O)=O)cc2)c(Oc2ccc(F)cc2F)c(=O)c1Br [Example 17, 3-Bromo-5-(2,4-difluorophenoxy)-6-(4-methanesulfonylphenyl)-2-methyl pyran-4-one]",0.78,27,–,20,–
"Cc1oc(-c2ccc(S(C)(=O)=O)cc2)c(Oc2ccc(Cl)cc2)c(=O)c1Br [Example 18, 3-Bromo-5-(4-chlorophenoxy)-6-(4-methanesulfonylphenyl)-2-methyl pyran-4-one]",0.82,93,251,76.7,–
"Cc1oc(-c2ccc(S(C)(=O)=O)cc2)c(Oc2ccc(F)cc2F)c(=O)c1C [Example 19, 3-(2,4-Difluorophenoxy)-5,6-dimethyl-2-(4-methanesulfonylphenyl)pyran-4-one]",0.082,178,192,14.6,–
"C=Cc1c(C)oc(-c2ccc(S(C)(=O)=O)cc2)c(Oc2ccc(F)cc2F)c1=O [Example 20, 3-(2,4-Difluorophenoxy)-2-(4-methanesulfonylphenyl)-6-methyl-5-vinyl pyran-4-one]",1.43,22,184,31.2,–

# The remaining lines, values ahead:
IC50 (COX-2) [µM],Ratio COX-1/COX-2 (COX-2),melting point [°C],IC50 (COX-1) [µM],inhibition at 100 µM (COX-1) [%],Compound
0.58,62,173,35.6,–,"CCc1c(C)oc(-c2ccc(S(C)(=O)=O)cc2)c(Oc2ccc(F)cc2F)c1=O [Example 21, 3-(2,4-Difluorophenoxy)-5-ethyl-2-(4-methanesulfonylphenyl)-6-methyl pyran-4-one]"
0.19,279,205,53,–,"CS(=O)(=O)c1ccc(-c2oc(CO)cc(=O)c2Oc2ccc(F)cc2F)cc1 [Example 22, 3-(2,4-Difluorophenoxy)-6-hydroxymethyl-2-(4-methanesulfonylphenyl) pyran-4-one]"
1.44,>70,206,–,2,"CS(=O)(=O)c1ccc(-c2oc(CO)cc(=O)c2Oc2ccc(F)cc2)cc1 [Example 23, 3-(4-Fluorophenoxy)-6-hydroxymethyl-2-(4-methanesulfonylphenyl)pyran-4-one]"
0.6,>150,227,–,13,"CS(=O)(=O)c1ccc(-c2oc(CO)cc(=O)c2Oc2ccc(Cl)cc2)cc1 [Example 24, 3-(4-Chlorophenoxy)-6-hydroxymethyl-2-(4-methanesulfonylphenyl)pyran-4-one]"
–,–,202 to 203,–,–,"CS(=O)(=O)c1ccc(-c2oc(CO)cc(=O)c2Oc2ccc(Br)cc2F)cc1 [Example 25, 3-(2-Fluoro-4-bromophenoxy)-6-hydroxymethyl-2-(4-methanesulfonylphenyl)pyran-4-one]"
0.17,124,124,21.1,–,"COCc1cc(=O)c(Oc2ccc(F)cc2F)c(-c2ccc(S(C)(=O)=O)cc2)o1 [Example 26, 3-(2,4-Difluorophenoxy)-2-(4-methanesulfonylphenyl)-6-methoxymethyl pyran-4-one]"
0.32,270,–,86.3,–,"COCc1cc(=O)c(Oc2ccc(F)cc2)c(-c2ccc(S(C)(=O)=O)cc2)o1 [Example 27, 3-(4-Fluorophenoxy)-2-(4-methanesulfonylphenyl)-6-methoxymethylpyran-4-one]"
0.44,209,156,91.9,–,"COCc1cc(=O)c(Oc2ccc(Cl)cc2)c(-c2ccc(S(C)(=O)=O)cc2)o1 [Example 28, 3-(4-Chlorophenoxy)-2-(4-methanesulfonylphenyl)-6-methoxymethylpyran-4-one]"
–,–,175,–,–,"CC(=O)OCc1cc(=O)c(Oc2ccc(F)cc2F)c(-c2ccc(S(C)(=O)=O)cc2)o1 [Example 29, Acetic acid [5-(2,4-difluorophenoxy)-6-(4-methanesulfonylphenyl)-4-oxo-4H-pyran-2-yl]methyl ester]"
–,–,263,–,–,"CS(=O)(=O)c1ccc(-c2oc(C(=O)O)cc(=O)c2Oc2ccc(Cl)cc2)cc1 [Example 33, 5-(4-Chlorophenoxy)-6-(4-methanesulfonylphenyl)-4-oxo-4H-pyran-2-carboxylic acid]"
–,–,156,–,–,"CS(=O)(=O)c1ccc(-c2oc(C(F)F)cc(=O)c2Oc2ccc(F)cc2F)cc1 [Example 34, 6-(1,1-Difluoromethyl)-3-(2,4-difluorophenoxy)-2-(4-methanesulfonylphenyl)pyran-4-one]"
–,–,187.8 to 188.6,–,–,"Cc1c(C(F)F)oc(-c2ccc(S(C)(=O)=O)cc2)c(Oc2ccc(F)cc2F)c1=O [Example 38, 2-(1,1-Difluoromethyl)-5-(2,4-difluorophenoxy)-6-(4-methanesulfonylphenyl)-3-methylpyran-4-one]"
